# Experimental data from US20180303807A1, “ANDROGEN RECEPTOR LIGANDS” (DUKE UNIVERSITY, priority 2015, published 2018).
# Molecular target: T1, AR (Homo sapiens, UniProt P10275)
# T1 construct: expressed in transfected cells; host or cells: CV1 cells
# T1 sequence (P10275 1-920): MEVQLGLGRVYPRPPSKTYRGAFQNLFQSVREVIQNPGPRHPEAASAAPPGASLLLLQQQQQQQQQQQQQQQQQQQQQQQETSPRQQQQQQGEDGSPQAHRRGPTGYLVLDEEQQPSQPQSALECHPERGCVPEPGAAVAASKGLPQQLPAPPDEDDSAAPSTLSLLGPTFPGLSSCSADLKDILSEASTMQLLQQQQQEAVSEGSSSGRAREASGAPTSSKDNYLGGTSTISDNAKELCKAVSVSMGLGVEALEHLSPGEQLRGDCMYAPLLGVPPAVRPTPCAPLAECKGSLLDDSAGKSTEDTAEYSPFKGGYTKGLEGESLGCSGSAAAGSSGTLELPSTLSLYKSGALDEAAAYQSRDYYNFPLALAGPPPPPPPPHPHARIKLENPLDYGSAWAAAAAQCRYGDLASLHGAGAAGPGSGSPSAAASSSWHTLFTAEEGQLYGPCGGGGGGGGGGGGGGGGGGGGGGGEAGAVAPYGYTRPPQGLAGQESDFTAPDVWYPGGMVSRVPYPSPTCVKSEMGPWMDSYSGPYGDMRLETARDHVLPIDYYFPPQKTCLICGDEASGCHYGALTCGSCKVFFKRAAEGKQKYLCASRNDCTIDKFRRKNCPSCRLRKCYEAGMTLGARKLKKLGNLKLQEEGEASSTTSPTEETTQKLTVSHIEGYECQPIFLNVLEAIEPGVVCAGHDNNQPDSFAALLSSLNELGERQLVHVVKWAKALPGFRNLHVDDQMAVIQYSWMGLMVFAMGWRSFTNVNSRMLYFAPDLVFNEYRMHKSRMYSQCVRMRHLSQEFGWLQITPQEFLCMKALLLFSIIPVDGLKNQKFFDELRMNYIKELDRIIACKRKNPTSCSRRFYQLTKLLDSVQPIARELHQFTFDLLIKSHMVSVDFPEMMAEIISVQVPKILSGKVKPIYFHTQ
# Test: Reporter gene assay, AR transcriptional (MMTV-Luc) in CV1 cells
# Format: cell-based
# Conditions: pcDNA-AR + MMTV-Luc, 0.1 nM R1881 plus test compound, 24 hrs
# Experimental: (§1) Reporter Gene Assay (IC50 determination, Table 2, B1-B3). CV1 cells were seeded into 96-well cell culture plates and transfected with Lipofectin. For AR transcriptional assays, the DNA mixture consisted of pcDNA-AR, MMTV-Luc (androgen responsive reporter gene), and Renilla-Luc (for assessing transfection efficiency and toxicity). Following overnight incubation, cells were induced with hormone (0.1 nM R1881 (synthetic AR agonist) plus increasing concentrations of test compound) for 24 hrs. Cells were lysed and luciferase activity was quantified using Dual Luciferase Reagent (DLR). IC50 determination was assessed using GraphPad Prism software.
row,SMILES,B1 = AR transcriptional IC50 (μM) in CV1 cells
1,CC1(C)CC(=O)C2=C(C1)Nc1ccc3ncccc3c1C2c1ccc(S(C)(=O)=O)cc1 (centres unmarked) [Compound A36],Inactive
2,CC1(C)CC(=O)C2=C(C1)Nc1c(ccc3ncccc13)C2c1ccc([N+](=O)[O-])cc1 (centres unmarked) [Compound A44],Inactive

# Same assay, conditions: pcDNA-AR + MMTV-Luc, 0.1 nM R1881 plus test compound, 24 hrs, read-out: B1 = AR transcriptional IC50 (μM) in CV1 cells
row,SMILES,IC50 [µM]
1,"CC1(C)CC(=O)C2=C(C1)Nc1ccc3ncncc3c1C2c1ccc(F)c(F)c1 (racemic) [Compound A86, (±)-12-(3,4-difluorophenyl)-9,9-dimethyl-8,9,10,12-tetrahydropyrimido[5,4-a]acridin-11(7H)-one]",1.8
2,CC1(C)CC(=O)C2=C(C1)Nc1ccc3ncccc3c1C2c1ccc(O)cc1 (centres unmarked) [Compound A24],> 10
3,"CC1(C)CC(=O)C2=C(C1)Nc1ccc3ncccc3c1C2c1cccs1 (centres unmarked) [Compound A66, 9,9-dimethyl-12-(thiophen-2-yl)-8,9,10,12-tetrahydrobenzo[b][4,7]phenanthrolin-11(7H)-one]",4.1
4,CC1(C)CC(=O)C2=C(C1)Nc1ccc3ncccc3c1C2c1ccc(C(=O)O)cc1 (centres unmarked) [Compound A37],38
5,"CC1(C)CC(=O)C2=C(C1)Nc1cc(N3CCCC3)ccc1C2c1cc2ccccc2s1 (racemic) [Compound A94, (±)-9-(benzo[b]thiophen-2-yl)-3,3-dimethyl-6-(pyrrolidin-1-yl)-3,4,9,10-tetrahydroacridin-1(2H)-one]",> 10
6,CC1(C)CC(=O)C2=C(C1)Nc1ccc3ncccc3c1C2c1ccc(Br)cn1 (centres unmarked) [Compound A33],3.4
7,CC1(C)CC(=O)C2=C(C1)Nc1ccc3ncccc3c1C2c1ccc(C#N)cn1 (centres unmarked) [Compound A56],1.2
8,"Cc1ccc2c3c(ccc2n1)NC1=C(C(=O)CC(C)(C)C1)C3c1ccc(F)c(F)c1 (racemic) [Compound A81, (±)-12-(3,4-difluorophenyl)-3,9,9-trimethyl-8,9,10,12-tetrahydrobenzo[b][4,7]phenanthrolin-11(7H)-one]",> 10
9,CC1CC(=O)C2=C(C1)Nc1ccc3ncccc3c1C2c1ccc([N+](=O)[O-])cc1 (centres unmarked) [Compound A26],0.43
10,"Cc1ccc(C2C3=C(CC(C)(C)CC3=O)Nc3ccc4nccnc4c32)s1 (racemic) [Compound A104, (±)-9,9-dimethyl-12-(5-methylthiophen-2-yl)-8,9,10,12-tetrahydropyrazino[2,3-a]acridin-11(7H)-one]",2
11,"CC1(C)CC(=O)C2=C(C1)Nc1ccc3nc(C#N)ccc3c1C2c1ccc(F)c(F)c1 (racemic) [Compound A52, (±)-12-(3,4-difluorophenyl)-9,9-dimethyl-11-oxo-7,8,9,10,11,12-hexahydrobenzo[b][4,7]phenanthroline-3-carbonitrile]",> 10
12,Cc1ccc(C2C3=C(CC(C)(C)CC3=O)Nc3ccc4ncccc4c32)nc1 (centres unmarked) [Compound A35],58
13,CC1(C)CC(=O)C2=C(C1)Nc1ccc3ncccc3c1C2c1ccc2nonc2c1 (centres unmarked) [Compound A30],1.8
14,"CC1(C)CC2=C(C(c3ccc(F)c(F)c3)c3c(ccc4ncccc34)N2)S(=O)(=O)C1 (racemic) [Compound A53, (±)-12-(3,4-difluorophenyl)-9,9-dimethyl-8,9,10,12-tetrahydro-7H-thiopyrano[2,3-b][4,7]phenanthroline 11,11-dioxide]",> 10
15,"CC1(C)CC(=O)C2=C(C1)Nc1ccc3nccnc3c1C2c1ccc(Cl)s1 (racemic) [Compound A99, (±)-12-(5-chlorothiophen-2-yl)-9,9-dimethyl-8,9,10,12-tetrahydropyrazino[2,3-a]acridin-11(7H)-one]",0.6
16,"CC1(C)CC(=O)C2=C(C1)Oc1ccc3ccccc3c1C2c1ccc(F)c(F)c1 (racemic) [Compound A89, (±)-12-(3,4-difluorophenyl)-9,9-dimethyl-9,10-dihydro-8H-benzo[a]xanthen-11(12H)-one]",0.4
17,"Cc1ccc(C2C3=C(CC(C)(C)CC3=O)Nc3ccc4ccccc4c32)s1 (centres unmarked) [Compound A106, 9,9-dimethyl-12-(5-methylthiophen-2-yl)-8,9,10,12-tetrahydrobenzo[a]acridin-11(7H)-one]",0.8
18,Cc1ccc(C2C3=C(CC(C)(C)CC3=O)Nc3cc(N4CCCC4)ccc32)s1 (centres unmarked) [Compound A105],> 10
19,CC1(C)CC(=O)C2=C(C1)Nc1ccc3cn[nH]c3c1C2c1ccc(F)c(F)c1 (centres unmarked) [Compound A77],> 10
20,"CC1(C)CC(=O)C2=C(C1)Nc1ccc3ccccc3c1C2c1cc2ccccc2s1 (racemic) [Compound A95, (±)-12-(benzo[b]thiophen-2-yl)-9,9-dimethyl-8,9,10,12-tetrahydrobenzo[a]acridin-11(7H)-one]",0.5

row,SMILES,IC50 [µM]
1,O=C1CCC2=C1C(c1ccc([N+](=O)[O-])cc1)c1c(ccc3ncccc13)N2 (centres unmarked) [Compound A47],9.9
2,CC1(C)CC(=O)C2=C(C1)Nc1ccc3ncccc3c1C2c1ccc(F)c(F)c1 (centres unmarked) [Compound A32],0.4
3,CC1(C)CC(=O)C2=C(C1)Nc1ccc3cnccc3c1C2c1ccc([N+](=O)[O-])cc1 (centres unmarked) [Compound A43],9.1
4,"CC1(C)CC(=O)C2=C(C1)Nc1ccc3nc(C(=O)O)ccc3c1C2c1ccc(F)c(F)c1 (racemic) [Compound A80, (±)-12-(3,4-difluorophenyl)-9,9-dimethyl-11-oxo-7,8,9,10,11,12-hexahydrobenzo[b][4,7]phenanthroline-3-carboxylic acid]",> 10
5,CC1(C)CC(=O)C2=C(C1)Nc1ccc3ncccc3c1C2c1ccc(Cl)c(Cl)c1 (centres unmarked) [Compound A31],2.2
6,Cc1ccsc1C1C2=C(CC(C)(C)CC2=O)Nc2ccc3nccnc3c21 (centres unmarked) [Compound A115],> 10
7,CC1(C)CC(=O)C2=C(C1)Nc1ccc3cn[nH]c3c1C2c1ccc(Cl)s1 (centres unmarked) [Compound A108],1.2
8,CC1(C)CC(=O)C2=C(C1)Nc1ccc3ncccc3c1C2c1ccc(B(O)O)c(F)c1 (centres unmarked) [Compound A39],52
9,CC1(C)CC(=O)C2=C(C1)Nc1ccc3ncccc3c1C2c1cncnc1 (centres unmarked) [Compound A58],> 10
10,"CN1CC(=O)C2=C(C1)Nc1ccc3ncccc3c1C2c1ccc(F)c(F)c1 (racemic) [Compound A54, (±)-12-(3,4-difluorophenyl)-9-methyl-8,9,10,12-tetrahydropyrido[4,3-b][4,7]phenanthrolin-11(7H)-one]",> 10
11,"CC1(C)CC(=S)C2=C(C1)Nc1ccc3ncccc3c1C2c1ccc(F)c(F)c1 (racemic) [Compound A82, (±)-12-(3,4-difluorophenyl)-9,9-dimethyl-8,9,10,12-tetrahydrobenzo[b][4,7]phenanthroline-11(7H)-thione]",9.1
12,CC1(C)CC(=O)C2=C(C1)Nc1ccc3ncccc3c1C2c1ccc(Br)nc1 (centres unmarked) [Compound A34],1.9
13,CC1(C)CC(=O)C2=C(C1)Nc1ccc3ncccc3c1C2c1ccc(F)cc1 (centres unmarked) [Compound A40],1.7
14,CC(C)C1CC(=O)C2=C(C1)Nc1ccc3ncccc3c1C2c1ccc([N+](=O)[O-])cc1 (centres unmarked) [Compound A45],0.3
15,CC1(C)CC(=O)C2=C(C1)Nc1ccc3ncccc3c1C2c1ccc(C(F)(F)F)cc1 (centres unmarked) [Compound A41],1.9
16,CC1(C)CC(=O)C2=C(C1)Nc1ccc3ncccc3c1C2c1cnccn1 (centres unmarked) [Compound A65],> 10
17,"CC1(C)CC(=O)C2=C(C1)Nc1cc(N3CCCC3)ccc1C2c1ccc(Br)s1 (racemic) [Compound A98, (±)-9-(5-bromothiophen-2-yl)-3,3-dimethyl-6-(pyrrolidin-1l-yl)-3,4,9,10-tetrahydroacridin-1(2H)-one]",> 10
18,CC1(C)CC(=O)C2=C(C1)Nc1ccc3cn[nH]c3c1C2c1ccc(Br)s1 (centres unmarked) [Compound A112],3.2
19,CC1(C)CC(=O)C2=C(C1)Nc1ccc3ncccc3c1C2c1ccc([N+](=O)[O-])c(O)c1 (centres unmarked) [Compound A38],3.3
20,"C[n+]1cccc2c3c(ccc21)NC1=C(C(=O)CC(C)(C)C1)C3c1ccc(F)c(F)c1 (racemic) [Compound A87, (±)-12-(3,4-difluorophenyl)-4,9,9-trimethyl-11-oxo-7,8,9,10,11,12-hexahydrobenzo[b][4,7]phenanthrolin-4-ium iodide]",1.3

# Tested on: CV1 cells
# Test: Toxicity of test compound in the CV1 reporter gene assay (Renilla-Luc)
# Format: cell-based
# Conditions: 20 μM
# Experimental: as §1
row,SMILES,B2 = % Toxicity of test compound (20 μM) [%]
1,CC1(C)CC(=O)C2=C(C1)Nc1ccc3ncccc3c1C2c1ccc(O)cc1 (centres unmarked) [Compound A24],0

# Same assay, conditions: 60 μM
row,SMILES,B3 = % Toxicity of test compound (60 μM) [%]
1,CC1(C)CC(=O)C2=C(C1)Nc1ccc3ncccc3c1C2c1ccc(O)cc1 (centres unmarked) [Compound A24],35
